Reference: patent US20250032493A1, “Methods for Treating Diseases Using MALT1 Inhibitors” (RARIFIED BIOSCIENCES, INC., priority 2021, published 2025)
Read-outs that look alike come from different tables or passages of the source.

Experiments:
[1] = test system: rat collagen induced arthritis (CIA) model; test: Rat collagen-induced arthritis model: clinical score
Source text: Adult female Lewis Rats (180-200 g body weight) were immunized subcutaneously with Type II bovine collagen/Incomplete Freund's Adjuvant emulsion on Day 0 and Day 7. On Day 14 rats were randomized based on clinical disease scores in different treatment groups. Rats received either once daily (q.d) dose of compounds via oral gavage or Vehicle (0.5% Carboxymethylcellulose-Na+0.5% Tween 80 in water, suspension) for 2 weeks. Naïve rats used as controls.

splenic Tregs = test: Rat CIA model: splenic Treg levels; assay type: in vivo; conditions: for reduction in the Treg levels: CIA rats, in comparison to vehicle
Procedure: (§1) For isolation of synovial fluid prior to study termination, animals were anesthetized and the skin on the hind limbs were separated to ensure exposure of knee joint. A small incision was made near the top of the knee joint and the articular cavity was rinsed with 60 μl phosphate-buffered saline (PBS) for 2 time and ˜50-60 μl synovial fluid was collected. The synovial fluid samples were spun down, and the supernatant stored at −80° C. prior to cytokine analysis. At study termination, plasma was prepared from whole blood and stored at −80° C. prior to cytokine analysis and measurement of total and anti-collagen IgG. Single cell suspensions were prepared from harvested spleens following standard methods and Treg frequencies measured by flow cytometry-based immunophenotyping of freshly isolated cells.
Harvested spleens were homogenized in cold PBS and cellular debris removed by passing through a […] cell strainer. The cell suspension was centrifuged at 300×g for 5 min at 4° C. and the pellet was treated with 1×RBC lysis buffer per manufacturer's protocol (Thermofisher). The washed cell pellet was resuspended for a final concentration of 5-10×10^6 cells/ml and 100 μl of cell suspension was processed for immunophenotyping. […] Cells were washed with cold FACS wash buffer (BD) and fixed with 1×FoxP3/Transcription Factor Fixation Buffer (Thermofisher) for overnight at 4° C. […] Cells were washed 2-3× with the permeabilization and wash buffer as mentioned earlier, and finally resuspended in FACS wash buffer. Samples were acquired on a BD LSRFortessa flow cytometer and data analyzed using the FlowJo software (BD).

Tregs = test: Mouse accelerated Lupus model: Treg levels; assay type: in vivo, mice; conditions: 3 and 30 mg/kg daily
Procedure: In this example, REO-528 MALT1 inhibitor was administered to mice of an accelerated Lupus Nephritis model (IFN-alpha accelerated) to investigate the impact of the administration of the MALT1 inhibitor. Mice were divided into 6 groups: 1) Naïve, 2) vehicle (weeks 13-18), 3) REO538 (3 mg/kg) daily administration weeks 13-18, 4) REO-538 (30 mg/kg) daily administration weeks 13-18, 5) REO-538 (30 mg/kg) daily administration weeks 15-18, and 6) BID dexamethasone (Dex) at 1 mg/kg for weeks 15-18. Groups 2 through 6 were also administered AAV encoding mIFNα to accelerate the lupus nephritis disease.

MALT1 = target: T1, MALT1 (Homo sapiens, UniProt Q9UDY8); test: Example IC50 and IC90 values of MALT1 inhibitors (blood concentration targets); assay type: cell-based
T1 sequence (Q9UDY8 1-824): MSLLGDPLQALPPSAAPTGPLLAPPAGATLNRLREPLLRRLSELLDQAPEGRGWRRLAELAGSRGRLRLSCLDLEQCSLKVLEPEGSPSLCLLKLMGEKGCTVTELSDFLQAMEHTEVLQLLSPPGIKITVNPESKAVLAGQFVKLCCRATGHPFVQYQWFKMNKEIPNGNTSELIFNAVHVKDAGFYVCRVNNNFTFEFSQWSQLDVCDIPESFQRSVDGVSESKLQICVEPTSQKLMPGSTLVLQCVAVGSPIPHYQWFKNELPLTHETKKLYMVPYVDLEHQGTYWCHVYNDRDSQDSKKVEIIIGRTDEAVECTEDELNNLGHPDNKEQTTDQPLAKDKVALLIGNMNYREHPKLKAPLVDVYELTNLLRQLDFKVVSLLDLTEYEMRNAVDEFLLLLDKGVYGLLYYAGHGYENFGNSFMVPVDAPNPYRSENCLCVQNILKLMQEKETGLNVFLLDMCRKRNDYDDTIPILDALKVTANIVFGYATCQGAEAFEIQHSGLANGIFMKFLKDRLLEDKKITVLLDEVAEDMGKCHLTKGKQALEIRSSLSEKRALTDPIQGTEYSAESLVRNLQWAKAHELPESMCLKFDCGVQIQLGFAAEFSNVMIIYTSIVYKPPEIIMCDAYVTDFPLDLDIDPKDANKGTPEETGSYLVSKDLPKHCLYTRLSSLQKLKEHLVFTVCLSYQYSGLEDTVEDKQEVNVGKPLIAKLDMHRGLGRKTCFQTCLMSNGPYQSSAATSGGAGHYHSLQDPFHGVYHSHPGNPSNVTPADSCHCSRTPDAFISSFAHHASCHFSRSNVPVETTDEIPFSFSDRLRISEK
Source text: In various embodiments, the plasma PK profile of the MALT1 inhibitor refers to a time over an IC50 blood concentration target following administration to the subject. As used herein, a “time over an IC50 blood concentration target” refers to a period of time following administration in which a concentration of the MALT1 inhibitor in the subject's blood is above the IC50 value.
In various embodiments, the plasma PK profile of the MALT1 inhibitor refers to a time over an IC90 blood concentration target following administration to the subject. As used herein, a “time over an IC90 blood concentration target” refers to a period of time following administration in which a concentration of the MALT1 inhibitor in the subject's blood is above the IC90 value.

[2] = test system: rat collagen induced arthritis (CIA) model; test: Rat CIA model: plasma and synovial cytokines, anti-collagen and total IgG; assay type: in vivo
Procedure: as §1
All cytokine measurements were performed using commercially available kits and as per manufacturer's protocol. Supernatants from human whole blood and cellular assays were quantified using the human Proinflammatory Panel 1 (human) kit on a Sector Imager 6000 reader (Meso Scale Discovery, Rockville, MD). IL-17a was quantified using the V-Plex Human IL-17a kit on a Sector Imager 6000 reader (Meso Scale Discovery, Rockville, MD). Supernatants from rat whole blood assay were analyzed for IL-2 levels using the rat IL-2 Duoset ELISA kit (R&D). […]

[3] = test system: human monocyte-derived macrophages; test: Monocyte-derived macrophages stimulated with depleted zymosan
Procedure: (§2) After differentiation, cells were harvested with Accutase solution (Stemcell Technologies) and incubated for 2 h at 37° C., 5% CO2 in 96-well plates.

Total B cells = test: B-cell proliferation assay (BCR/CD40L); conditions: readout Proliferation
Procedure: Freshly isolated total CD19^+ B-cells (Stemcell) from Human PBMCs were labeled with 2 μM Cell Trace Violet (ThermoFisher) and incubated for 5 min on a Nutator. […] Proliferation was assessed by flow cytometry.

Jurkat-T cells = test: Jurkat IL-2 assay; conditions: Jurkat-T cells (a-CD3/-CD28/-CD2); readout IL-2
Procedure: Cells were cultured in RPMI/10% FBS (Thermofisher) and maintained under a concentration of 3×10^6 cells/ml. MALT1i at different concentrations were stamped by ECHO onto 384-well plates (PerkinElmer, Waltham, MA) following which cells were plated in fresh media and incubated for 30 minutes before stimulation with soluble α-CD3/CD28/CD2 (ImmunoCult, Stemcell Technologies, Vancouver, Canada) for 24 h. Supernatants were collected as mentioned earlier and processed immediately for cytokine analysis or stored at −80° C. To assess viability of cells treated with compound, cells were lysed with CTG reagent (Promega, Madison, WI), and measured by luminometer.

CD4+ Total T-cells = test: Total CD4+ T-cell cytokine release assay; assay type: cell-based, human; conditions: CD4+ Total T-cells (a-CD3/-CD28)
Procedure: All cytokine measurements were performed using commercially available kits and as per manufacturer's protocol. Supernatants from human whole blood and cellular assays were quantified using the human Proinflammatory Panel 1 (human) kit on a Sector Imager 6000 reader (Meso Scale Discovery, Rockville, MD). IL-17a was quantified using the V-Plex Human IL-17a kit on a Sector Imager 6000 reader (Meso Scale Discovery, Rockville, MD). Supernatants from rat whole blood assay were analyzed for IL-2 levels using the rat IL-2 Duoset ELISA kit (R&D). Plasma and synovial samples harvested from the rat CIA study were quantified for proinflammatory cytokines using the rat V-PLEX Proinflammatory Panel 2 kit (MSD).

[4] = test system: CD4+CD45RO+ Memory T-cells; test: Memory CD4+ T-cell cytokine release assay; conditions: Memory T-cells (a-CD3/-CD28/-CD2)
Procedure: Memory CD4^+ T-cells were isolated from human donor PBMCs using an EasySep kit (Stemcell) and were rested overnight in complete RPMI media (Thermofisher) supplemented with 10% FBS (Atlanta Biologics), 10 mM HEPES, 2 mM GlutaMAX, 1 mM Na Pyruvate, and 1×MEM non-essential amino acids (Thermofisher).

[5] = test system: human monocyte-derived macrophages; test: Monocyte-derived macrophages stimulated with IgG immune complex; conditions: Macrophages (aIgG + IgG, immune-complex)
Procedure: as §2

SMILES: CN(C(=O)C1CCS(=O)(=O)CC1)[C@@H](c1ccc(Nc2cnc3cccnc3c2C2CC2)cc1)C(F)(F)F [REO-538]
- reduction in the clinical score ([1]; 0.3 mg/kg dose, in comparison to the vehicle treatment): 26%
- reduction in the clinical score ([1]; 1 mg/kg dose, in comparison to the vehicle treatment): 59%
- reduction in the clinical score ([1]; 3 mg/kg dose, in comparison to the vehicle treatment): 65%
- reduction in the clinical score ([1]; 10 mg/kg dose, in comparison to the vehicle treatment): 80%
- reduction in the clinical score ([1]; Example 6: daily 3 mg/kg for 14 days, vs vehicle): 25%
- reduction in the clinical score ([1]; Example 6: daily 10 mg/kg for 2 days followed by daily 3 mg/kg for 12 days, vs vehicle): 43%
- reduction in the clinical score ([1]; Example 6: daily 10 mg/kg for 14 days, vs vehicle): 70%
- log10AUC value at ~50% reduction in the clinical score ([1]; rat CIA model): ~1.2 μg*hr/mL
- qualitative efficacy (FIG. 11) ([1]; rat CIA model): high efficacy
- reduction in the Treg levels (splenic Tregs; 1 mg/kg dose): 1%
- reduction in the Treg levels (splenic Tregs; 10 mg/kg dose): 49%
- log10AUC value at ~40% reduction in Treg levels (splenic Tregs; rat CIA model): ~2.0 μg*hr/mL
- qualitative Treg impact (FIG. 11) (splenic Tregs; rat CIA model): low Treg impact
- Treg levels (Tregs): reduced Treg levels in a dose dependent manner
- IC90 (MALT1; example values, blood concentration target, read-out: IC90): 10.4 µM
- IC90 (MALT1; higher dotted line of FIG. 13B, read-out: IC90 value (estimated)): ~1 µg/mL
- IC50 (MALT1; lower dotted line of FIG. 13B, read-out: estimated IC50 value (converted)): ~0.376 µM
- IL-1beta and IL-6 in synovial fluid ([2]; 10 mg/kg and 10+3 mg/kg groups in comparison to the 3 mg/kg group): lower
- KC/GRO and TNFα in synovial fluid ([2]; each of the 3 mg/kg, 10 mg/kg and 10+3 mg/kg groups in comparison to vehicle): lower levels

SMILES: CO[C@@H](C)c1c(NC(=O)Nc2ccnc(C(F)(F)F)c2)cnc2cc(Cl)nn12 [REO-981]
- Effect size (% Max. inhibition) ([3]; readout IL-6): >60%
- Effect size (% Max. inhibition) ([3]; readout TNFa): >75%
- log10Ctrough value at ~50% reduction in the clinical score ([1]; rat, in vivo): ~2.6 ng/mL
- Effect size (% Max. inhibition) (Total B cells): ~60%
- log10Ctrough value at ~40% reduction in Treg levels (splenic Tregs; rat, in vivo): ~3.3 ng/mL
- Effect size (% Max. inhibition) (Jurkat-T cells): >95%
- Effect size (% Max. inhibition) (CD4+ Total T-cells; readout IFNg): >95%
- Effect size (% Max. inhibition) (CD4+ Total T-cells; readout IL-2): >95%
- Effect size (% Max. inhibition) (CD4+ Total T-cells; readout TNFa): ~85%
- Effect size (% Max. inhibition) ([4]; readout IFNg): ~80%
- Effect size (% Max. inhibition) ([4]; readout IL-2): >90%
- Effect size (% Max. inhibition) ([4]; readout IL-17): >90%
- Effect size (% Max. inhibition) ([4]; readout TNFa): ~85%
- Effect size (% Max. inhibition) ([5]; readout IL-6): >75%
- Effect size (% Max. inhibition) ([5]; readout TNFa): ~74%
